Assay results published in patent publication US20130158264A1, “Polymorphs of OSI-906” (priority 2010, published 2013).
Entries after “also recorded” stand apart in the source; their conditions may differ.

Assays:
Assay type in all cases: physicochemical
[1] = Gravimetric moisture sorption; conditions: for water adsorbed: 25° C.; for XRPD form of the dried solid following moisture sorption analysis: dried at 60° C./0% RH after the experiment; for stability upon desorption (loss of water): humidity reduced below 15%
Method: Gravimetric Moisture Sorption: Gravimetric moisture sorption experiments were carried out on selected materials by first drying the sample at 40% RH and 25° C. until an equilibrium weight was reached or for a maximum of four hours. The sample was then subjected to an isothermal (25° C.) adsorption scan from 40 to 90% RH in steps of 10%. The sample was allowed to equilibrate to an asymptotic weight at each point for a maximum of four hours. Following adsorption, a desorption scan from 85 to 0% RH (at 25° C.) was run in steps of −10% again allowing a maximum of four hours for equilibration to an asymptotic weight. An adsorption scan was then performed from 0% RH to 40% RH in steps of +10% RH. The sample was then dried for 1-2 hours at 60° C. and the resulting solid analyzed by XRPD.

[2] = Additional experiments to isolate OSI-906 solid forms (desiccant storage, exposure to lab humidity)
Method: Form C was confirmed to be a monohydrate of OSI-906 by gravimetric moisture sorption analysis. The solid form adsorbed approximately 4.2 wt % water at 30% RH which is consistent with the theoretical water content (4.1 wt %) of a monohydrate of OSI-906 (See FIG. 47). Upon desorption, hysteresis was observed between 25% RH and 5% RH. […] Based on these findings, an additional experiment was conducted in an effort to isolate this new crystalline form. An XRPD substrate containing Form C was placed in a desiccator at room temperature. After overnight storage, the slide was analyzed immediately by XRPD upon removal from the environment and brief exposure (<10 min) to the lab humidity (40-50% RH).

[3] = DSC isothermal hold at 105° C. followed by XRPD; conditions: held at 105° C. for five minutes
Method: Differential Scanning Calorimetry Analysis:
Differential scanning calorimetry (DSC) analyses were carried out on the samples “as is”. Samples were weighed in an aluminum pan, covered with a pierced lid, and then crimped. Analysis conditions were 30-105, 30-300, 30-350° C. at 10° C./min. In addition, isothermal holds were performed for a duration of five minutes at 105° C. and 200° C.
(See FIG. 49). In an effort to elucidate the additional thermal events, additional DSC experiments were conducted. Form C was held at 105° C. for five minutes, cooled to room temperature and then reheated to the same temperature. […] The isothermal hold experiment was repeated and the sample then exposed to the lab environment (˜40-50% RH) overnight. […] These observations are consistent with the results previously presented following storage of Form C under desiccant conditions.

[4] = Slurry experiments (form conversion by XRPD)
Method: Slurry Experiments: Approximately 20-50 mg of select crystalline forms were weighed to individual 8 mL vials equipped with a magnetic stir bar. Either THF, water, EtOH, (80:20) EtOH:Water or IPA was added to obtain a free flowing slurry. After 3, 5, 7 and 11 days of equilibration at 50° C. or ambient temperature, solid from each slurry was recovered by centrifuge filtration through 0.45 μm nylon filters. The isolated solids were analyzed by XRPD to check for form conversion. […] (Table 22).

[5] = Solid-state stability under storage conditions (XRPD)
Method: Solid-State Stability: Approximately 50 mg of Form A or Forms C+D were weighed to individual 8 mL vials and placed uncapped in the following storage conditions: 40° C. under vacuum, 80° C. under vacuum, desiccant, 25° C./60% RH and 40° C./75% RH. […] (Table 21). To assess the stability of Form A, the solid form was stored at different environmental conditions as described herein. Approximately 50 mg of Form A was weighed to 8 mL vials and placed uncapped in the following storage conditions: 40° C. under vacuum, 80° C. under vacuum, desiccant, 25° C./60% RH and 40° C./75% RH. After 24 hours and seven days of equilibration the solids were analyzed by XRPD. (See Table 21).

[6] = Thermal stress experiments (Forms B, D, E, and F) in vacuum oven
Method: Thermal Stress Experiments (Forms B, D, E, and F)
Solids were stressed under different temperature (40° C. or 80° C.) in a vacuum oven for a measured time period.

[7] = (80:20) EtOH:Water, prolonged equilibration at ambient and elevated temperature
[8] = water, prolonged equilibration at ambient and elevated temperature

SMILES	water adsorbed ([1]; 60% RH)	XRPD form of the dried solid following moisture sorption analysis [1]	stability upon desorption (loss of water) [1]	form stability in slurry [4, 7]	form stability in slurry ([4]; EtOH, ambient temperature)	form stability in slurry ([4]; EtOH, elevated temperature)	form stability in slurry ([4]; IPA)	form stability in slurry ([4]; THF)	form stability in slurry [4, 8]	XRPD Result after thermal stress ([6]; 40° C., 3 d)	also measured
CC1(O)CC(c2nc(-c3ccc4ccc(-c5ccccc5)nc4c3)c3c(N)nccn23)C1 (stereo not drawn) [Form A, cis-3-[8-amino-1-(2-phenyl-quinolin-7-yl)-imidazo[1,5-a]pyrazin-3-yl]-1-methylcyclobutanol]	0.2 wt %	consistent with the initial form	–	–	–	–	–	–	–	–	hygroscopicity by gravimetric moisture sorption analysis [1]: non-hygroscopic; water adsorbed ([1]; 90% RH): 0.3 wt %
CC1(O)CC(c2nc(-c3ccc4ccc(-c5ccccc5)nc4c3)c3c(N)nccn23)C1 (stereo not drawn) [Form C, cis-3-[8-amino-1-(2-phenyl-quinolin-7-yl)-imidazo[1,5-a]pyrazin-3-yl]-1-methylcyclobutanol]	–	mixture of Form C and an unidentified crystalline form; also recorded: mixture of Forms C+I	not stable	stable	exhibiting stability	conversion to Forms A or E	conversion to Form A	conversion to Form A	stable	–	water adsorbed ([1]; 30% RH): approximately 4.2 wt %; XRPD form after desiccant storage ([2]; overnight in a desiccator at room temperature): Form I; XRPD form after DSC isothermal hold [3]: indicative of Form C; XRPD form after slurry ([4]; THF, room temperature, 11 day): Form A
CC1(O)CC(c2nc(-c3ccc4ccc(-c5ccccc5)nc4c3)c3c(N)nccn23)C1 (stereo not drawn) [Form D, cis-3-[8-amino-1-(2-phenyl-quinolin-7-yl)-imidazo[1,5-a]pyrazin-3-yl]-1-methylcyclobutanol]	approximately 3.9 wt %	mixture of Forms C and D	not stable	conversion to Form C	Form C	converting to either Form A or E	conversion to Form A	conversion to Form A	stable	Form C	solid-state stability (summary in words) ([5]; one and seven days at 25° C./60% RH, 40° C./75% RH and under desiccant conditions): exhibited stability; solid-state stability (summary in words) ([5]; one and seven days at elevated temperature drying conditions (40° C. or 80° C. under vacuum)): conversion to Form C
CC1(O)CC(c2nc(-c3ccc4ccc(-c5ccccc5)nc4c3)c3c(N)nccn23)C1 (stereo not drawn) [Form F, cis-3-[8-amino-1-(2-phenyl-quinolin-7-yl)-imidazo[1,5-a]pyrazin-3-yl]-1-methylcyclobutanol]	–	–	–	–	–	–	–	–	–	Form C	XRPD Result after thermal stress ([6]; 80° C., overnight): Form C
CC1(O)CC(c2nc(-c3ccc4ccc(-c5ccccc5)nc4c3)c3c(N)nccn23)C1 (stereo not drawn) [Form I, cis-3-[8-amino-1-(2-phenyl-quinolin-7-yl)-imidazo[1,5-a]pyrazin-3-yl]-1-methylcyclobutanol]	–	–	–	–	–	–	–	–	–	–	XRPD form after exposure to lab humidity ([2]; 1 hour, lab humidity 40-50% RH): conversion to Form C
